Measurements: BindingDB's records for doi:10.1016/j.bmcl.2003.10.011 (University of Hamburg, 2003)

Biological target: Alpha-galactosidase (Aspergillus niger)
Assay: Compound tested for inhibition of alpha-galactosidase from Aspergillus niger

Ki | Structure (SMILES)
400 µM | N[C@@H](COC[C@H]1O[C@@H](O)[C@H](O)[C@H](O)[C@@H]1O)C(=O)O [2-Amino-3-(3,4,5,6-tetrahydroxy-tetrahydro-pyran-2-ylmethoxy)-propionic acid]
300 µM | C[C@@H](OC[C@H]1O[C@@H](O)[C@H](O)[C@H](O)[C@@H]1O)[C@H](N)C(=O)O [2-(R)-Amino-3-(3,4,5,6-tetrahydroxy-tetrahydro-pyran-2-ylmethoxy)-butyric acid]
